This note sets out measurements from patent US10189796B2, “[4-(1,3,3-trimethyl-2-oxo-3,4-dihydro-1H-quinoxalin-7-yl)phenoxy]ethyloxy compound or salt thereof” (SANTEN PHARMACEUTICAL CO., LTD., priority 2015, dated 2019).

In assay [1] the test system is TNFα production in rat whole blood. As to the kind of experiment: TNFα production inhibitory action evaluation test (LPS stimulation ex vivo, ELISA). The class given is cell-based. Particulars: 20 hours, 200 μM test compound solution 10 μL/well, DEX treated group = 100, read-out: TNFα production inhibitory ratio (% DEX). The protocol: In order to evaluate an action of the present compound as a GR agonist, a TNFα production inhibitory action in rat whole blood after LPS stimulation ex vivo was investigated. For the measurement of the TNFα production amount, the ELISA method (manufactured by R&D Systems, Cat No. RTA00) was used, and a procedure was carried out according to the protocol attached thereto. Hereinafter, the specific method will be described.
LPS solution: LPS was dissolved in PBS(−) and diluted with RPMI 1640 to prepare an LPS solution with a concentration of 2 μg/mL.
After the test compound was dissolved in dimethylsulfoxide, the solution was diluted with PBS(−) to prepare 200 μM of a test compound solution. In addition, DEX was similarly dissolved to prepare 200 μM of a DEX solution, and a TNFα production inhibitory ratio of DEX was measured, and used for calculation of Efficacy (% DEX).
• 1) Blood was collected from 3 to 5 rats using an injection syringe treated with heparin from the abdominal aorta under isoflurane anesthesia. The rats confirmed death after lething the whole blood. • 2) The blood of 3 to 5 rats pooled in a 96-well round bottom culture plate was seeded at each 180 μL/well. • 3) It was cultured (37° C., 5% CO2, 95% air) for about 1 hour. • 4) The test compound solution was added each 10 μL/well, and cultured for 1 hour. • 5) LPS solution was added each 10 μL/well. • 6) The sample in which 2% dimethylsulfoxide-containing PBS(−) was added with each 10 μL/well in place of each test compound solution, and RPMI 1640 was added with each 10 μL/well in place of the LPS solution was made a negative control. • 7) The sample in which 2% dimethylsulfoxide-containing PBS(−) was added with each 10 μL/well in place of each test compound solution was made a positive control. • 8) After completion of 20 hours cultivation, the supernatant was recovered and the amount of TNFα released in the supernatant was measured by using an ELISA Kit. • 9) The TNFα production inhibitory ratio was calculated according to the following calculation formula. (Calculation of TNFα Production Inhibitory Ratio)
TNFα production inhibitory ratio (%) was calculated according to the following formula. TNFα production inhibitory ratio (%)=100×{1−(TNFα production amount of each test compound solution−average value of TNFα production amount of negative control group)/(average value of TNFα production amount of positive control group−average value of TNFα production amount of negative control group)}(%)
Further, a TNFα production inhibitory ratio (Efficacy (% DEX)) when the DEX treated group was made 100 was calculated. Efficacy (% DEX)=100×{(average value of TNFα production inhibitory ratio of each test compound solution)/(average value of TNFα production inhibitory ratio of DEX treated group)}(%)

The target in the next assay is Recombinant human GR (Homo sapiens (Human), UniProt P04150). Description: GR competitive binding assay by fluorescence polarization. Particulars: 20 μM test compound solution, 10 μL/well; 2 hours; DEX positive control; read-out: GR binding rate (%). The protocol:
In order to evaluate a binding activity of the present compound to GR, a GR receptor competitor assay was carried out by a fluorescence polarization method. In the assay, a GR competitive binding assay kit (manufactured by Invitrogen, cat No. P2816) was used for the assay, and a procedure was carried out according to the protocol attached to the kit. Hereinafter, the specific method will be described.
GR screening buffer: A buffer containing 10 mM of potassium phosphate (pH 7.4), 20 mM of sodium molybdate (Na2MoO4), 0.1 mM of ethylene diamine tetraacetic acid (EDTA), 5 mM of dithiothreitol (DTT), 0.1 mM of stabilizing peptide and 2% of dimethylsulfoxide was prepared.
4×GS1 solution: Fluormone™ GS1, which is a fluorescent glucocorticoid ligand, was diluted with GR screening buffer, whereby a 4 nM solution was prepared.
4×GR solution: Recombinant human GR was diluted with GR screening buffer, whereby a 16 nM solution was prepared.
After a test compound was dissolved in dimethylsulfoxide, the resulting solution was diluted with GR screening buffer, whereby a 20 μM test compound solution was prepared. In addition, DEX was similarly dissolved, whereby a DEX solution with a […] concentration was prepared, and the solution was diluted with GR screening buffer, whereby a 2 mM DEX solution was prepared. DEX was used as positive control.
• 1) The test compound solution was added in an amount of 10 μL into each well of a 384-well plate. • 2) 4×GS1 solution and 4×GR solution were added in an amount of 5 μL into each well, respectively. • 3) GR screening buffer was added in an amount of 10 μL/well into each well in place of the test compound solution, which was made a negative control. • 4) A 2 mM of DEX was added in an amount of 10 μL/well into each well in place of the test compound solution, which was made a positive control. • 5) The plate was incubated in a dark place at room temperature for 2 hours, and fluorescence polarization of each well was measured. (Calculation Equation of GR Binding Ratio)
A GR binding ratio (%) was calculated from the following equation. GR binding ratio (%)=100×{1−(fluorescence polarization of test compound solution−average value of fluorescence polarization of positive control solution)/(average value of fluorescence polarization of negative control solution−average value of fluorescence polarization of positive control solution)}
For orientation: Fluorescence polarisation rises when a labelled molecule tumbles more slowly, as on binding a larger partner.

Assay [2] deals with VEGF-induced retinal elevated vascular permeability model of rabbits. Description: Retinal vascular permeability model evaluation test. The class given is in vivo, rabbit. Particulars: 8% 50 μL/base agent A, intravitreal once; 4 weeks before VEGF induction. Here is the method:
In order to evaluate the inhibitory effect of the present compounds on VEGF-induced retinal vascular permeability, the inhibitory effect of the present compound on retinal vascular permeability in a VEGF-induced retinal elevated vascular permeability model of rabbits was evaluated. Incidentally, this effect was evaluated by calculating a leaked amount of the fluorescent dye of the base agent administered group (non-induced group), a leaked amount of the fluorescent dye of the base agent administered group (control group) and a leaked amount of the fluorescent dye of the test compound administered group.
To the test compound was added 0.01% Polysorbate 80/0.5% sodium carboxymethyl cellulose/PBS (hereinafter referred to as “base agent A”.), whereby 2% (W/V) or 8% (W/V) of the test compound suspension was prepared. Or else, to the test compound was added PEG400 (hereinafter referred to as “base agent B”.), whereby 6% (W/W) of the test compound solution was prepared.
VEGF solution: humanVEGF165 was dissolved in PBS to prepare 50 μg/mL of VEGF solution.
• 1) A mixed solution (1 mL/kg) of 5% ketamine hydrochloride injection solution and 2% xylazine hydrochloride injection solution with the ratio of 7:1 was intramuscularly administered to rabbits (Dutch male rabbits), and the rabbits were anesthetized. • 2) Tropicamide-phenylephrine hydrochloride ophthalmic solution (trade name: Midlin P) was eye dropped to maintain pupillary mydriasis, and then, the VEGF solution was intravitreally administered. Incidentally, PBS was intravitreally administered to the base agent administration group (non-induced group). • 3) Fluorescein was intravenously administered 2 days after intravitreal administration of VEGF. Two hours after the intravenous administration of fluorescein, an amount of the leaked fluorescent dye in the vitreous body was measured by using a fluorophotometer. (Test Method) • 1) One week before or 4 weeks before VEGF-induction, 50 μL of the test compound suspension (prepared by the base agent A) was intravitreally administered once, or 5 μL of the test compound solution (prepared by the base agent B) was intravitreally administered once. Incidentally, in the base agent administered group (non-induced group) and the base agent administered group (control group), the base agent A was used in place of the test compound suspension, or the base agent B was used in place of the test compound solution. • 2) Inhibition ratio of elevated retinal vascular permeability was calculated according to the following calculation formula. (Calculation Formula) Inhibitory ratio (%) on elevated retinal vascular permeability of the test compound administered group=100×{1−(average value of a leaked fluorescent dye amount in the test compound administered group−average value of a leaked fluorescent dye amount in the base agent administered group (non-induced group))/(average value of a leaked fluorescent dye amount in the base agent administered group (control group)−average value of a leaked fluorescent dye amount of the base agent administered group (non-induced group))}

Assay [3] relates to IL-6 production in human corneal epithelium cell line (HCE-T). Description: IL-6 production inhibitory action evaluation test (LPS stimulation, HTRF). The format is cell-based. Particulars: 4 hours. Here is the method:
To evaluate the action of the present compounds as a GR agonist, IL-6 production inhibitory action in human corneal epithelial cell line after LPS stimulation was examined The IL-6 production was measured by using the HTRF method (Cat No. 62IL6PEB manufactured by Cisbio Bioassays, Inc.) according to the attached protocol. The specific method is described below.
LPS solution: After dissolving LPS in PBS(−), the resulting solution was diluted with a culture solution, whereby an LPS solution with a 1 μg/mL concentration was prepared.
After dissolving the test compound in dimethylsulfoxide, the solution was diluted with a 10% FBS-DMEM/Ham's F12 medium, whereby a 100 μM of the test compound solution was prepared. […] In addition, DEX was similarly dissolved, whereby a 100 μM concentration of the DEX solution was prepared, and an IL-6 production inhibitory ratio of DEX was measured, and used for calculation of Efficacy (% DEX).
Used cells: human corneal epithelium cell line (HCE-T) (RIKEN, Institute of Physical and Chemical Research)
The cells continued to subculture according to this method were used for the test. (Test Method and Measurement Method) • 1) The subcultured HCE-T was recovered and the cells were seeded at 2.0×10^4 cells/0.1 mL/well in a 96-well flat bottom culture plate. • 2) After culturing overnight, medium the medium was removed and each 80 μL/well of 10%
FBS-DMEM/Ham's F12 medium was added. • 3) Test compound solution was added with each 10 μL/well. • 4) LPS solution was added with each 10 μL/well. • 5) The sample to which 1% dimethylsulfoxide-containing 10% FBS-DMEM/Ham's F12 medium was added with each 10 μL/well in place of each test compound solution, and 10% FBS-DMEM/Ham's F12 medium was added in place of the LPS solution was made a negative control. • 6) The sample in which 1% dimethylsulfoxide-containing 10% FBS-DMEM/Ham's F12 medium was added with each 10 μL/well in place of each test compound solution was made a positive control. • 7) After completion of 4 hours cultivation, the supernatant was recovered and the amount of IL-6 released in the supernatant was measured by using an HTRF human IL-6 Kit. • 8) The IL-6 production inhibitory ratio was calculated according to the following calculation formula. (Calculation of IL-6 Production Inhibitory Ratio)
The IL-6 production inhibitory ratio (%) was calculated by the following formula. IL-6 production inhibitory ratio (%)=100×{1−(IL-6 produced amount of each test compound solution−average value of IL-6 produced amount of negative control group)/(average value of IL-6 produced amount of positive control group−average value of IL-6 produced amount of negative control group)}(%)
Further, the IL-6 production inhibitory ratio (Efficacy (% DEX)) when the DEX treated group was made 100 was calculated. Efficacy (% DEX)=100×{(average value of IL-6 production inhibitory ratio of each test compound solution)/(average value of IL-6 production inhibitory ratio of DEX treated group)}(%)
In addition, IC50 was calculated according to a conventional method. IDBS XLfit4 was used for the calculation.
On the technique in general: TR-FRET usually uses a lanthanide donor and a delayed reading to cut background.

Recombinant human GR, sequence (P04150 whole entry): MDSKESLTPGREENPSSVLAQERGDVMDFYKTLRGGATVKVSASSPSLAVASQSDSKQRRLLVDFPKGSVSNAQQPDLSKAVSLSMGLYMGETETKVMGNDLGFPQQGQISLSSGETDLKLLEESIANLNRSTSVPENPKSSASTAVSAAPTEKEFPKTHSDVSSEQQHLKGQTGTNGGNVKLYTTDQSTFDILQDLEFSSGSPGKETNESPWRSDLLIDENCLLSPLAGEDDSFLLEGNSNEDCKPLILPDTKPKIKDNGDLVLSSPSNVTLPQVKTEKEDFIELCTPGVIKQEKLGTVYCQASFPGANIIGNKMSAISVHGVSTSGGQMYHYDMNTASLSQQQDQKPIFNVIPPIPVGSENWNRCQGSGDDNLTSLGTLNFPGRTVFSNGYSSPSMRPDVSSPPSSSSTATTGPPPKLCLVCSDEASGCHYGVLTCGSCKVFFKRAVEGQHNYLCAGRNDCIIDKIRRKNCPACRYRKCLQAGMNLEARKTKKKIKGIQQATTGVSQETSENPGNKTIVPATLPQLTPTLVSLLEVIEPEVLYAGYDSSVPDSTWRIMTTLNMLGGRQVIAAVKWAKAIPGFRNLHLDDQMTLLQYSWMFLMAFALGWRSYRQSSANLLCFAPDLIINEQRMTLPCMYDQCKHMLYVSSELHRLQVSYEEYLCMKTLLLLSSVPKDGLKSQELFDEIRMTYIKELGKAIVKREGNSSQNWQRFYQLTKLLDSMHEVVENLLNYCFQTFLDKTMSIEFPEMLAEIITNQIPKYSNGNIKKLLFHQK

Take `COc1cc(OCC(O)C(F)(F)F)ccc1-c1ccc2c(c1COc1cc(F)ccc1C)N(C)C(=O)C(C)(C)N2` (stereo not drawn) [Compound 1-2, 8-(5-Fluoro-2-methylphenoxymethyl)-7-[4-(2-hydroxy-3,3,3-trifluoro-propyl)oxy-2-methoxyphenyl]-1,3,3-trimethyl-3,4-dihydro-1H-quinoxalin-2-one]: the Emax in assay [1] is 94%.

As to `COc1cc(OC[C@H](O)CCO)ccc1-c1ccc2c(c1COc1cc(F)ccc1C)N(C)C(=O)C(C)(C)N2` [Compound 2-2, (R)-7-[4-(2,4-dihydroxybutyl)oxy-2-methoxyphenyl]-8-(5-fluoro-2-methyl-phenoxymethyl)-1,3,3-trimethyl-3,4-dihydro-1H-quinoxalin-2-one], the Emax in assay [1] amounted to 95%. Also, the inhibition at 10 µM on Recombinant human GR was found to be 91%.

In the case of `COc1cc(OC[C@H](CC#N)OP(=O)(O)O)ccc1-c1ccc2c(c1COc1cc(F)ccc1C)N(C)C(=O)C(C)(C)N2` [Compound 14-3, (S)-7-[4-(3-cyano-2-phosphonohydroxypropyl)oxy-2-methoxyphenyl]-8-(5-fluoro-2-methylphenoxymethyl)-1,3,3-trimethyl-3,4-dihydro-1H-quinoxalin-2-one], the “Inhibitory ratio (%) on elevated vascular permeability” value in assay [2] came out at 89%.

For `COc1cc(OC[C@@H](C)O)ccc1-c1ccc2c(c1COc1cc(F)ccc1C)N(C)C(=O)C(C)(C)N2` [Compound 1-3, (R)-8-(5-fluoro-2-methylphenoxymethyl)-7-[4-(2-hydroxypropyl)oxy-2-methoxy-phenyl]-1,3,3-trimethyl-3,4-dihydro-1H-quinoxalin-2-one], the Emax in assay [1] came to 93%. For the same compound, on Recombinant human GR, the inhibition at 10 µM is 95%.

Regarding `COc1cc(OCC(O)CC(=O)N2CCOCC2)ccc1-c1ccc2c(c1COc1cc(F)ccc1C)N(C)C(=O)C(C)(C)N2` (stereo not drawn) [Compound 10-2, 8-(5-fluoro-2-methylphenoxymethyl)-7-[4-[3-(N-morpholino)carbonyl-2-hydroxypropyl]oxy-2-methoxyphenyl]-1,3,3-trimethyl-3,4-dihydro-1H-quinoxalin-2-one], the Emax in assay [1] was more than 99%. In addition, the inhibition at 10 µM on Recombinant human GR was more than 99%.

For the compound `CC[C@@H](O)COc1ccc(-c2ccc3c(c2COc2cc(F)ccc2C)N(C)C(=O)C(C)(C)N3)c(OC)c1` [Compound 1-4, (R)-8-(5-fluoro-2-methylphenoxymethyl)-7-[4-(2-hydroxybutyl)oxy-2-methoxyphenyl]-1,3,3-trimethyl-3,4-dihydro-1H-quinoxalin-2-one], the Emax in assay [3] (100 μM test compound solution 10 μL/well, DEX treated group = 100, read-out: IL-6 production inhibitory ratio (% DEX)) was found to be 92%; in assay [1] it was 94%. Moreover, in assay [3] (IL-6 production inhibition), inhibition was half-maximal at 34 nM (IC50). Further, the inhibition at 10 µM at Recombinant human GR is more than 99%.

The term IC50 denotes the midpoint of a concentration-inhibition curve. Read a high IC50 as lower potency.
